Tests used:
Parameters in all cases: scale not given: the % may be the effect or the level left
[1] = target: CDK9/Cyclin K (Homo sapiens) (UniProt P50750+O75909); assay: Inhibition of human CDK9/cyclin K assessed as enzyme activity at 1 uM using KTFCGTPEYLAPEVRREPRILSEEEQEMFRDFDYIADWC as substrate preincubated for 20 mins followed by [gamma-33P]-ATP addition and measured after 120 mins by radiometric Hot-SpotSM Kinase assay relative to control; type: protein-complex assay
[2] = target: T1, Discoidin domain-containing receptor 2 (Homo sapiens) (UniProt Q16832); assay: Inhibition of human DDR2 assessed as enzyme activity at 1 uM using KKSRGDYMTMQIG as substrate preincubated for 20 mins followed by [gamma-33P]-ATP addition and measured after 120 mins by radiometric Hot-SpotSM Kinase assay relative to control
T1 sequence (whole entry): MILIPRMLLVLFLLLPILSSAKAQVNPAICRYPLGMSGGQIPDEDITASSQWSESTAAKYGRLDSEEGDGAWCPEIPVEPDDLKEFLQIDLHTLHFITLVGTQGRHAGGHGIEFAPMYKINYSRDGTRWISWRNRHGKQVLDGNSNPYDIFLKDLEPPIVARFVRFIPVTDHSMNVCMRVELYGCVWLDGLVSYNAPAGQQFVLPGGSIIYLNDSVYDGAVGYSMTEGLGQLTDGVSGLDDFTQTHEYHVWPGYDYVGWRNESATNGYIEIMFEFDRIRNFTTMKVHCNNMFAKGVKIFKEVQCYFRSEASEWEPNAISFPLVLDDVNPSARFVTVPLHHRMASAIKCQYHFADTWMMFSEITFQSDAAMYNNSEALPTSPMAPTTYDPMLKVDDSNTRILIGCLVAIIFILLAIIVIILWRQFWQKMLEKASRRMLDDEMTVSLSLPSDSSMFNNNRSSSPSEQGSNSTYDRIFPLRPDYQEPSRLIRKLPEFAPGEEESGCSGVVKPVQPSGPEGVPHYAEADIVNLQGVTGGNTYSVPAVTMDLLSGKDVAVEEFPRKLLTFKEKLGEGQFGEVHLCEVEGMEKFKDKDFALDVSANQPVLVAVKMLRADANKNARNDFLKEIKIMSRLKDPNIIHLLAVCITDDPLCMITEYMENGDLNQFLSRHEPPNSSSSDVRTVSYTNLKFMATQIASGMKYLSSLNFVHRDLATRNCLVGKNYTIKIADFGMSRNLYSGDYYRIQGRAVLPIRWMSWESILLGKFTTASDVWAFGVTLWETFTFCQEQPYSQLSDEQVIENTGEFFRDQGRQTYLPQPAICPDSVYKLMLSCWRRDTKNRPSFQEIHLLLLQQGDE

[3] = target: Serine/threonine-protein kinase MARK1 (Homo sapiens) (UniProt Q9P0L2); assay: Inhibition of human MARK1 assessed as enzyme activity at 1 uM using KKKVSRSGLYRSPSMPENLNRPR as substrate preincubated for 20 mins followed by [gamma-33P]-ATP addition and measured after 120 mins by radiometric Hot-SpotSM Kinase assay relative to control
Chain of Serine/threonine-protein kinase MARK1 (Homo sapiens) (Q9P0L2 whole entry, looked up): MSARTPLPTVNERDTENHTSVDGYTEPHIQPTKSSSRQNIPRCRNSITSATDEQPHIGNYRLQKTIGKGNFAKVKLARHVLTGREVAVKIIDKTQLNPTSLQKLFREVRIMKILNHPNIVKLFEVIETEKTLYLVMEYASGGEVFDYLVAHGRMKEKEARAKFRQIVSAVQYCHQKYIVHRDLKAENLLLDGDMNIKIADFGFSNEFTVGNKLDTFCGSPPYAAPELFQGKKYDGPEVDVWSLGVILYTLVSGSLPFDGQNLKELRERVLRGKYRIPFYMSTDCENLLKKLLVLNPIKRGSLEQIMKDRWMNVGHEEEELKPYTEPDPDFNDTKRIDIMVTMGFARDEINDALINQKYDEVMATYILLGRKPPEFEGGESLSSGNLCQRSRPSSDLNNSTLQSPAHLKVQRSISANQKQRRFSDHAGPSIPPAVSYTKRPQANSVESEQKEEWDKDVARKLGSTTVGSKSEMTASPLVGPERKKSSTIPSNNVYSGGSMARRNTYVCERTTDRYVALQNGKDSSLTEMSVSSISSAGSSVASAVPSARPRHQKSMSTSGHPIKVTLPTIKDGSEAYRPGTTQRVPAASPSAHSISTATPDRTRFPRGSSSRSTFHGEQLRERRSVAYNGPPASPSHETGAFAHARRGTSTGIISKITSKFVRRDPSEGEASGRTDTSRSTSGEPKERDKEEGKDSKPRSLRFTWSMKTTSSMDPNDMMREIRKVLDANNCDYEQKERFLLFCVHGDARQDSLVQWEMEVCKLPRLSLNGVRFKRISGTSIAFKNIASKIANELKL

[4] = target: T2, Serine/threonine-protein kinase Nek1 (Homo sapiens) (UniProt Q96PY6); assay: Inhibition of human NEK1 assessed as enzyme activity at 1 uM using myelin basic protein as substrate preincubated for 20 mins followed by [gamma-33P]-ATP addition and measured after 120 mins by radiometric Hot-SpotSM Kinase assay relative to control
T2 sequence (whole entry): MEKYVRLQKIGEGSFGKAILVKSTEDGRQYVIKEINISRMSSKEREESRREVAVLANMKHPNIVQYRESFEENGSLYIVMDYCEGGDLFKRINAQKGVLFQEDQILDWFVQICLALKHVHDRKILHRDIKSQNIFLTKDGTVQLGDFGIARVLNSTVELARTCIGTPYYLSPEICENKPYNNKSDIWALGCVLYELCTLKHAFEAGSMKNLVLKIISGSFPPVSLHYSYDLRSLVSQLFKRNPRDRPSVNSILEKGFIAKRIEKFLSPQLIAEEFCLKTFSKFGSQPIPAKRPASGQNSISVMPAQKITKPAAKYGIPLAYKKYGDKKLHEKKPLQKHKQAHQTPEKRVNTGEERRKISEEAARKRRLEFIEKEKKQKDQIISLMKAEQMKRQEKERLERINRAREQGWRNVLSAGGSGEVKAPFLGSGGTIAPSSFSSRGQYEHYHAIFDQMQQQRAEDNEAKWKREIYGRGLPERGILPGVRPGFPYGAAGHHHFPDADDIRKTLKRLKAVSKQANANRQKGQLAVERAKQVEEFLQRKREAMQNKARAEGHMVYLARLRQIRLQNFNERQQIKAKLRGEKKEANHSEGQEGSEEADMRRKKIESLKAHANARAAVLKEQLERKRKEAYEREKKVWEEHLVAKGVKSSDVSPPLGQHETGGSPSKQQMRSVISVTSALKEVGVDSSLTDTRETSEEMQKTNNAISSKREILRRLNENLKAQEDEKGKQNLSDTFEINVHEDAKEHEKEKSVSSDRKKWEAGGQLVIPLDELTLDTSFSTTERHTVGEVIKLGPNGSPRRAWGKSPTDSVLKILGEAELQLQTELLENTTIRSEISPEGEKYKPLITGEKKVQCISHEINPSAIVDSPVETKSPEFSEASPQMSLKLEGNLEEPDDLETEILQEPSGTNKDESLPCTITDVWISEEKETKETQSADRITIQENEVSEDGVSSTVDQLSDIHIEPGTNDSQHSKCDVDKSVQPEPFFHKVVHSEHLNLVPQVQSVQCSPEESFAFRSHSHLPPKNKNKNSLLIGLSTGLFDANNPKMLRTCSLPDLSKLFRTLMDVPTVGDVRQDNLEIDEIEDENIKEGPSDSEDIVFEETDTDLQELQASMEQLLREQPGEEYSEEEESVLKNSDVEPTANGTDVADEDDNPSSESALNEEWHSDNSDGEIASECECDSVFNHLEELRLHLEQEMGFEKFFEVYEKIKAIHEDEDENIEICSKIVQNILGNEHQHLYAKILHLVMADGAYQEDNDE

[5] = target: Ribosomal protein S6 kinase beta-1 (Homo sapiens) (UniProt P23443); assay: Inhibition of human p70S6K assessed as enzyme activity at 1 uM using KKRNRTLTK as substrate preincubated for 20 mins followed by [gamma-33P]-ATP addition and measured after 120 mins by radiometric Hot-SpotSM Kinase assay relative to control
Chain of Ribosomal protein S6 kinase beta-1 (Homo sapiens) (P23443 whole entry, looked up): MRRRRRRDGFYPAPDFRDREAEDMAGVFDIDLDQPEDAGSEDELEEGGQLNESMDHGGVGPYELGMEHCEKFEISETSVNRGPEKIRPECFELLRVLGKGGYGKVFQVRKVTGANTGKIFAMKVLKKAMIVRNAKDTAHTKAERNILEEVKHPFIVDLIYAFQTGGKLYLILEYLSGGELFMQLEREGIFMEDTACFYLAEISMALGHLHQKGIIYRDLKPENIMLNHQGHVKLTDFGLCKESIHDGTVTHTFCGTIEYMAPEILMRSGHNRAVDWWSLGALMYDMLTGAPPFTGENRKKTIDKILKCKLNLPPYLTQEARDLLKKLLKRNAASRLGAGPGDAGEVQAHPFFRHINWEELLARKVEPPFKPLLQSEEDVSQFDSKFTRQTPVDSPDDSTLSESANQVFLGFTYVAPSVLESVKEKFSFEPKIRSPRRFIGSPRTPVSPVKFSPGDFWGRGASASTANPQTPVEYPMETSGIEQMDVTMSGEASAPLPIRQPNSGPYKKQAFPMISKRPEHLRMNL

Row | Compound | Activity [1] | Activity [2] | Activity [3] | Activity [4] | Activity [5]
1 | CC[C@H](Nc1ncnc2[nH]cnc12)c1nc2cccc(F)c2c(=O)n1-c1ccccc1 | 91.5% | 106% | 99.9% | 93.5% | 96.5%
2 | C[C@H](Nc1ncnc2nc[nH]c12)c1cc2cccc(Cl)c2c(=O)n1-c1ccccc1 | 93.1% | 110% | 93.3% | 87% | 97.2%
3 | CC(C)Oc1ccc(-c2nn([C@@H](C)c3oc4ccc(F)cc4c(=O)c3-c3cccc(F)c3)c3ncnc(N)c23)cc1F [UMBRALISIB] | 88.8% | 104% | 96.2% | 105% | 97.9%

From ChEMBL document CHEMBL5715954, “Silencing c-Myc translation as a therapeutic strategy through targeting PI3Kδ and CK1ε in hematological malignancies” (Blood, 2017)
